Measured values: patent publication US8344008B2 (Janssen Pharmaceutica NV, priority 2007, dated 2013)
Structures can show the parent of a compound that is named as a salt.

Target: T1, recombinant human LTA4 hydrolase (rhLTA4H) (Homo sapiens, UniProt P09960)
T1 construct: made in house; host or cells: Spodoptera frugiperda (Sf-9) cells, baculovirus (pFastBac1)
T1 sequence (P09960 1-611): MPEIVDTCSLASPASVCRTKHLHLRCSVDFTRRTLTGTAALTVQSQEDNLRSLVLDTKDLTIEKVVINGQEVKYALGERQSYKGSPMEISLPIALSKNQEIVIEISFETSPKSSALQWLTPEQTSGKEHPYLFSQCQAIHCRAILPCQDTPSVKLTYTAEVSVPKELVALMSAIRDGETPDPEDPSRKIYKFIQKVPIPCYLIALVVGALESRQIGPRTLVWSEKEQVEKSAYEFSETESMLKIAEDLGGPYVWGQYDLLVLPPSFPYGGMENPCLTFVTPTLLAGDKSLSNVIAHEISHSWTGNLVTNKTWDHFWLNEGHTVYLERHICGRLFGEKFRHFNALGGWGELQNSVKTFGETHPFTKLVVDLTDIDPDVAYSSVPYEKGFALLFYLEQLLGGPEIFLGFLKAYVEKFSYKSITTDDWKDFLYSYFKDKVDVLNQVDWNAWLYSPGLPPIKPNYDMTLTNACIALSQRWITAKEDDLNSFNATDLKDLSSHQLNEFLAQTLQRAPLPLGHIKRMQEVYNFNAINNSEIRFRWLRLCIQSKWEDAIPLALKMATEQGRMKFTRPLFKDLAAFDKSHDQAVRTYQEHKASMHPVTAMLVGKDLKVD
Test: Recombinant Human LTA4 Hydrolase Assay for LTA4 Hydrolase Inhibitor Activity
Assay type: biochemical
Settings: average of results obtained; LTB4 quantified by enzyme-linked immunoassay
Procedure: Biological Methods: Recombinant Human LTA4 Hydrolase Assay for LTA4 Hydrolase Inhibitor Activity
Compounds of the present invention were tested for LTA4 hydrolase inhibitor activity against recombinant human LTA4 hydrolase (rhLTA4H). Vectors were prepared and used to express rhLTA4H essentially as follows: LTA4 hydrolase encoding DNA was amplified by polymerase chain reaction (PCR) using a human placental cDNA library as a template. Oligonucleotide primers for the PCR reaction were based on the 5′-end, and the complement of the 3′-end, of the published nucleotide sequence for the coding region of the human LTA4 hydrolase gene (C. D. Funk et al., Proc. Natl. Acad. Sci. USA 1987, 84:6677-6681). The amplified 1.9 kb DNA fragment encoding LTA4 hydrolase was isolated and cloned into the pFastBac1 vector (Invitrogen). Recombinant baculovirus was generated as described by the manufacturer, and used to infect Spodoptera frugiperda (Sf-9) cells. Recombinant LTA4 hydrolase enzyme was purified from the infected Sf-9 cells essentially as described by J. K. Gierse et al. (Protein Expression and Purification 1993, 4:358-366). The purified enzyme solution was adjusted to contain 0.29 mg/mL LTA4 hydrolase, 50 mM Tris (pH 8.0), 150 mM NaCl, 5 mM dithiothreitol, 50% glycerol, and EDTA-free Complete protease inhibitor cocktail (Roche). The specific activity of the enzyme was about 3.8 μmol/min/mg.
LTA4 substrate was prepared from the methyl ester of LTA4 (Cayman Chemical) by treatment with 67 equiv of NaOH under nitrogen at rt for 40 min. The LTA4 substrate in its free acid form was kept frozen at −80° C. until needed. Each compound was diluted to different concentrations in assay buffer (0.1 M potassium phosphate (pH 7.4), 5 mg/mL fatty acid free BSA) containing 10% DMSO. A 25-uL aliquot of each compound dilution was incubated for 10 min at rt with an equal volume of assay buffer containing 36 ng of recombinant human LTA4H. The solution was then adjusted to 200 μL with assay buffer. LTA4 (free acid) was thawed and diluted in assay buffer to a concentration of 357 ng/mL, and 25 μL (9 ng) of LTA4 substrate was added to the reaction mixture (total volume=225 μL) at time zero. Each reaction was carried out at rt for 10 min. The reaction was stopped by diluting 10 μL of the reaction mixture with 200 μL of assay buffer. LTB4 was quantified in the diluted sample by a commercially available enzyme-linked immunoassay (Cayman Chemical Co.), as recommended by the manufacturer. Positive controls, under essentially identical conditions but without addition of an inhibitor compound, and negative controls, containing all assay components except enzyme, were routinely run in each experiment. […]
Results for the compounds tested in this assay are presented in Table 1 as an average of results obtained.

Ki | SMILES
0.034 µM | O=C([C@H]1CCOC1)N1C[C@@H]2C[C@H]1CN2Cc1ccc(Oc2nc3ccccc3s2)cc1 [Example 13, (S,S,S)-{5-[4-(Benzothiazol-2-yloxy)-benzyl]-2,5-diaza-bicyclo[2.2.1]hept-2-yl}-(tetrahydro-furan-3-yl)-methanone]
0.026 µM | O=C(CO)N1C[C@@H]2C[C@H]1CN2CCOc1ccc(Oc2nc3ccccc3s2)cc1 [Example 23, (S,S)-1-(5-{2-[4-(Benzothiazol-2-yloxy)-phenoxy]-ethyl}-2,5-diaza-bicyclo[2.2.1]hept-2-yl)-2-hydroxy-ethanone]
0.012 µM | CC(=O)N1CC2CN(CCOc3ccc(Oc4nc5ccccc5s4)cc3)CC2C1 (stereo not drawn) [Example 94, 1-(5-{2-[4-(Benzothiazol-2-yloxy)-phenoxy]-ethyl}-hexahydro-pyrrolo[3,4-c]pyrrol-2-yl)-ethanone]
0.145 µM | CS(=O)(=O)N1C[C@H]2C[C@@H]1CN2Cc1ccc(Oc2nc3ccc(F)cc3s2)cc1 [Example 201, (R,R)-6-Fluoro-2-[4-(5-methanesulfonyl-2,5-diaza-bicyclo[2.2.1]hept-2-ylmethyl)-phenoxy]-benzothiazole]
0.036 µM | NCC(=O)N1CCC2CN(Cc3ccc(Oc4nc5ccccc5s4)cc3)CC21 (stereo not drawn) [Example 95, 2-Amino-1-{5-[4-(benzothiazol-2-yloxy)-benzyl]-hexahydro-pyrrolo[3,4-b]pyrrol-1-yl}-ethanone]
0.031 µM | CC(C)(O)C(=O)N1C[C@@H]2C[C@H]1CN2Cc1ccc(Oc2nc3ccccc3s2)cc1 [Example 12, (S,S)-1-{5-[4-(Benzothiazol-2-yloxy)-benzyl]-2,5-diaza-bicyclo[2.2.1]hept-2-yl}-2-hydroxy-2-methyl-propan-1-one]
0.035 µM | NC(=O)N1CC2CCN(Cc3ccc(Oc4nc5ccccc5s4)cc3)CC2C1 (racemic) [Example 141, (±)-5-[4-(Benzothiazol-2-yloxy)-benzyl]-octahydro-pyrrolo[3,4-c]pyridine-2-carboxylic acid amide]
1.1 µM | CS(=O)(=O)N1C[C@@H]2C[C@H]1CN2Cc1ccc(Oc2nc3cc(Cl)ccc3s2)cc1 [Example 206, (S,S)-5-Chloro-2-[4-(5-methanesulfonyl-2,5-diaza-bicyclo[2.2.1]hept-2-ylmethyl)-phenoxy]-benzothiazole]
0.007 µM | NC(=O)N1C[C@H]2C[C@@H]1CN2Cc1ccc(Oc2nc3ccccc3s2)cc1 [Example 34, (R,R)-5-[4-(Benzothiazol-2-yloxy)-benzyl]-2,5-diaza-bicyclo[2.2.1]heptane-2-carboxylic acid amide]
0.003 µM | CC(=O)N1CC2CN(Cc3ccc(Oc4nc5ccccc5s4)cc3)CC2C1 (stereo not drawn) [Example 88, 1-{5-[4-(Benzothiazol-2-yloxy)-benzyl]-hexahydro-pyrrolo[3,4-c]pyrrol-2-yl}-ethanone]
0.029 µM | CS(=O)(=O)N[C@@H]1C[C@H]2CC[C@@H](C1)N2CCOc1ccc(Oc2nc3ccc(F)cc3s2)cc1 [Example 284, meso-exo-N-(8-{2-[4-(6-Fluoro-benzothiazol-2-yloxy)-phenoxy]-ethyl}-8-aza-bicyclo[3.2.1]oct-3-yl)-methanesulfonamide]
0.072 µM | CC(=O)N1C[C@@H]2C[C@H]1CN2Cc1ccc(Oc2nc3ccc(C)cc3s2)cc1 [Example 270, (S,S)-1-{5-[4-(6-Methyl-benzothiazol-2-yloxy)-benzyl]-2,5-diaza-bicyclo[2.2.1]hept-2-yl}-ethanone]
0.011 µM | CC(=O)N1C[C@H]2C[C@@H]1CN2CCOc1ccc(Oc2nc3cccc(F)c3s2)cc1 [Example 249, (R,R)-1-(5-{2-[4-(7-Fluoro-benzothiazol-2-yloxy)-phenoxy]-ethyl}-2,5-diaza-bicyclo[2.2.1]hept-2-yl)-ethanone]
0.033 µM | NC(=O)N1CCC2CN(Cc3ccc(Oc4nc5ccccc5s4)cc3)CC2C1 (stereo not drawn) [Example 143, 2-[4-(Benzothiazol-2-yloxy)-benzyl]-octahydro-pyrrolo[3,4-c]pyridine-5-carboxylic acid amide]
0.094 µM | NC(=O)N[C@H]1C[C@H]2CC[C@@H](C1)N2Cc1ccc(Cc2nc3ccccc3s2)cc1 [Example 36, meso-endo-[8-(4-Benzothiazol-2-ylmethyl-benzyl)-8-aza-bicyclo[3.2.1]oct-3-yl]-urea]
0.011 µM | O=C(N1C[C@@H]2C[C@H]1CN2CCc1ccc(Oc2nc3ccccc3s2)cc1)C1(O)CC1 [Example 16]
0.013 µM | COCC(=O)N1C[C@H]2C[C@@H]1CN2Cc1ccc(Oc2nc3ccccc3s2)cc1 [Example 21, (R,R)-1-{5-[4-(Benzothiazol-2-yloxy)-benzyl]-2,5-diaza-bicyclo[2.2.1]hept-2-yl}-2-methoxy-ethanone]
0.02 µM | O=C(CO)N1CC2CCN(Cc3ccc(Oc4nc5ccccc5s4)cc3)CC2C1 (stereo not drawn) [Example 117, 1-{5-[4-(Benzothiazol-2-yloxy)-benzyl]-octahydro-pyrrolo[3,4-c]pyridin-2-yl}-2-hydroxy-ethanone]
0.205 µM | O=S(=O)(c1cccnc1)N1CC2CN(Cc3ccc(Oc4nc5ccccc5s4)cc3)CC2C1 (stereo not drawn) [Example 120, 2-{4-[5-(Pyridine-3-sulfonyl)-hexahydro-pyrrolo[3,4-c]pyrrol-2-ylmethyl]-phenoxy}-benzothiazole]
0.092 µM | CC(=O)N1C2CCC1CN(Cc1ccc(Oc3nc4ccccc4s3)cc1)C2 [Example 51, meso-1-{3-[4-(Benzothiazol-2-yloxy)-benzyl]-3,8-diaza-bicyclo[3.2.1]oct-8-yl}-ethanone]
0.45 µM | c1ccc2sc(Oc3ccc(CN4CCC5CNCC5C4)cc3)nc2c1 (stereo not drawn) [Example 85, 2-[4-(Octahydro-pyrrolo[3,4-c]pyridin-5-ylmethyl)-phenoxy]-benzothiazole hydrochloride]
0.02 µM | O=C(c1cccs1)N1CC2CN(Cc3ccc(Oc4nc5ccccc5s4)cc3)CC2C1 (stereo not drawn) [Example 107, {5-[4-(Benzothiazol-2-yloxy)-benzyl]-hexahydro-pyrrolo[3,4-c]pyrrol-2-yl}-thiophen-2-yl-methanone]
0.072 µM | NC(=O)N[C@@H]1C[C@H]2CC[C@@H](C1)N2CCOc1ccc(Oc2nc3ccc(Cl)cc3s2)cc1 [Example 234, meso-exo-(8-{2-[4-(6-Chloro-benzothiazol-2-yloxy)-phenoxy]-ethyl}-8-aza-bicyclo[3.2.1]oct-3-yl)-urea]
0.034 µM | CC(=O)NC1[C@H]2CN(Cc3ccc(Oc4nc5ccccc5s4)cc3)C[C@@H]12 (stereo partly drawn) [Example 93, (R,S)—N-{3-[4-(Benzothiazol-2-yloxy)-benzyl]-3-aza-bicyclo[3.1.0]hex-6-yl}-acetamide]
0.127 µM | NC(=O)N[C@@H]1C[C@H]2CC[C@@H](C1)N2CCc1ccc(Oc2nc3cc(Cl)ccc3s2)cc1 [Example 202, meso-exo-(8-{2-[4-(5-Chloro-benzothiazol-2-yloxy)-phenyl]-ethyl}-8-aza-bicyclo[3.2.1]oct-3-yl)-urea]
0.035 µM | CC(=O)N[C@H]1C[C@H]2CC[C@@H](C1)N2Cc1ccc(Cc2nc3ccccc3s2)cc1 [Example 5, meso-endo-N-[8-(4-Benzothiazol-2-ylmethyl-benzyl)-8-aza-bicyclo[3.2.1]oct-3-yl]-acetamide]
0.003 µM | NC(=O)N1C[C@@H]2C[C@H]1CN2Cc1ccc(Oc2nc3ccccc3s2)cc1 [Example 32, (S,S)-5-[4-(Benzothiazol-2-yloxy)-benzyl]-2,5-diaza-bicyclo[2.2.1]heptane-2-carboxylic acid amide]
